# Results from ChEMBL document CHEMBL1201862, “PubChem BioAssay data set” (2004).
# Active and inactive are the calls of the source.
# Test system: not listed separately
# Experiment: Trypanosoma cruzi growth suppression in host cells – NIH3T3 host cells, beta-gal luminescence, confirmation (AID 2044);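 note: intracellular parasites grown in NIH/3T3 mouse fibroblasts as host cells; luminescent beta-galactosidase reporter signal from transgenic T. cruzi replicating inside host cells; inhibitors lower the luminescence signal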
# Format: functional, cell-based
# Conditions: not given
row,SMILES,EC50
1,Cc1ccc2c(N)c(C(=O)N(c3ccccc3)c3ccccc3)sc2n1,1.3 µM (active)

# Molecular target: Cytochrome P450 3A4 (Homo sapiens, UniProt P08684);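 note: CYP3A4 tested as one member of a cytochrome P450 panel screen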
# Experiment: not given
# Conditions: not given
# Chain of Cytochrome P450 3A4 (P08684 whole entry): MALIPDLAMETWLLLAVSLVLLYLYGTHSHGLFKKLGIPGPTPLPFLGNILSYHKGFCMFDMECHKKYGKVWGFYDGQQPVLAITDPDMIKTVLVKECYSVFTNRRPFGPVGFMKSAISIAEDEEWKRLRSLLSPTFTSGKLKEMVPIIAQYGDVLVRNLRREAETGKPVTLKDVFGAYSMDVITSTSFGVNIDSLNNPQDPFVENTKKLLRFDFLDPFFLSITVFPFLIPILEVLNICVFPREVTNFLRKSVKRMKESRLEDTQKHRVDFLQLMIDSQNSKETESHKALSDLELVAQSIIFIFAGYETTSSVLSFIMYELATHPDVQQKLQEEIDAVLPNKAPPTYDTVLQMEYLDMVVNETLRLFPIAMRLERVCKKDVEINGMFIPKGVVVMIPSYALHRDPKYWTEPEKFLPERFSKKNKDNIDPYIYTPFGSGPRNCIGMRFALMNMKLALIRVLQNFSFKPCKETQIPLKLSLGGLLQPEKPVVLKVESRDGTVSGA
row,SMILES,AC50
1,C#CCSc1nnc(-c2sc3ccccc3c2Cl)o1,8.91 µM (inconclusive)

# Test system: not listed separately
# Experiment: NIH3T3 cell viability loss – ATP luminescence, mouse fibroblasts, counter-screen, dose response (AID 2010);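 note: cells exposed to compound for about 90 hours before reading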
# Format: functional, cell-based
# Conditions: not given
row,SMILES,EC50
1,Cc1ccc2c(N)c(C(=O)N(c3ccccc3)c3ccccc3)sc2n1,> 60 µM (not active)

# Molecular target: T1, Cytochrome P450 1A2 (Homo sapiens, UniProt P05177);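 note: PubChem cytochrome P450 panel assay, CYP1A2 panel member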
# T1 sequence (P05177 whole entry): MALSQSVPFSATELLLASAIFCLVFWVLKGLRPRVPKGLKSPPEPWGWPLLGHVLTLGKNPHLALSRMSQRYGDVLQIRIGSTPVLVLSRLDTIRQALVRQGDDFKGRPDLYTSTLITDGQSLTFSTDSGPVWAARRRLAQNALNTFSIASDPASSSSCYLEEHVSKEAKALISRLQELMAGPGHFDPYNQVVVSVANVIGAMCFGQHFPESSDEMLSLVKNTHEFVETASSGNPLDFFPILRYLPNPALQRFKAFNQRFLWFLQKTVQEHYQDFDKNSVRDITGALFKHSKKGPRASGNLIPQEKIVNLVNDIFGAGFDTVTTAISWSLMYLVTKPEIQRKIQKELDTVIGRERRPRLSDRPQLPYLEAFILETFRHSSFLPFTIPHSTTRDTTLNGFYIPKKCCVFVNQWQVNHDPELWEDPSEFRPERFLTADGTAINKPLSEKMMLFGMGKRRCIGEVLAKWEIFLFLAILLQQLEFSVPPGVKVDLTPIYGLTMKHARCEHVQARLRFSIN
# Experiment: not given
# Conditions: not given
row,SMILES,AC50
1,C#CCSc1nnc(-c2sc3ccccc3c2Cl)o1,0.126 µM (inconclusive)

# Molecular target: T2, Protein RecA (Mycobacterium tuberculosis, UniProt P9WHJ3)
# T2 sequence (P9WHJ3 whole entry): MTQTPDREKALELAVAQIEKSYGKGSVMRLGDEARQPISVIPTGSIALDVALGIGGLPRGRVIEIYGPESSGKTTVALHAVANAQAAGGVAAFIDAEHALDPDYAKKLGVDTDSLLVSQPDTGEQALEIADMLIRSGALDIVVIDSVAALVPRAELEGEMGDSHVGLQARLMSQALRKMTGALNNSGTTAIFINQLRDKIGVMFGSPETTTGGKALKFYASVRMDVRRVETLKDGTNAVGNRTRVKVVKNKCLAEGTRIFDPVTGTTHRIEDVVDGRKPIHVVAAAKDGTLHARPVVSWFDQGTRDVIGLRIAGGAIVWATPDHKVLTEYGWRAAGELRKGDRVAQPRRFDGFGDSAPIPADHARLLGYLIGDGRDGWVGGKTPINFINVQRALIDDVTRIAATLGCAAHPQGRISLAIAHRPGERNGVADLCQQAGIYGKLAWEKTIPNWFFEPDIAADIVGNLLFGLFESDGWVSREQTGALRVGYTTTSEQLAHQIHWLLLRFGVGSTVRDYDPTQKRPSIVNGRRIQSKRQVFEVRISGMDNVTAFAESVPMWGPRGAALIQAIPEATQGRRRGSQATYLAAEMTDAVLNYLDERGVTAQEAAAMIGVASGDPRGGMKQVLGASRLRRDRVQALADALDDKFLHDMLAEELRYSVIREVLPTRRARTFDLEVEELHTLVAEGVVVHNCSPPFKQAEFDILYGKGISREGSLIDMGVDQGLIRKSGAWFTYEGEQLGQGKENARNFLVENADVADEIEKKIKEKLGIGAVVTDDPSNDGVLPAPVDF
# Experiment: Fluorescence Cell-Free Homogeneous Dose Retest to Identify Inhibitors of RecA-Intein Splicing Activity. [Related pubchem assays (depositor defined):AID2097, AID2223, AID489010, AID492950]
# Format: functional
# Conditions: not given
row,SMILES,EC50
1,CN(Cc1ccc(Cl)cc1)C(=O)CCl,2.61 µM (active)
2,CSC(=N/c1cc(Cl)ccc1Cl)/C(C#N)=C(/O)c1ccco1,0.912 µM (active)
3,Oc1ccc(Nc2nc(-c3ccc4ccccc4c3)cs2)cc1,7.3 µM (active)
4,C/C(CC(=O)Nc1cc(C)ccn1)=N\NC(=O)c1cccc(F)c1,8.06 µM (active)
5,COc1ccc(N/N=C(\C#N)C(=N)SCc2ccccc2)cc1,8.67 µM (active)
6,CCCc1n[nH]c2c1C(c1ccc(O)cc1OCC)C(C#N)=C(N)O2 (stereo not given),4.6 µM (active)
7,COC(=O)c1c(C)oc2ccc(N(C(=O)c3ccncc3)S(=O)(=O)c3ccc(C)cc3C)cc12,10.9 µM (active)
8,CC(=O)N1CC2(c3ccccc3)CN(C(C)=O)CC(c3ccccc3)(C1)C2=O,> 380 µM (inactive)
9,CC(=O)Oc1cc2c(cc1Cl)C1(CC(c3ccccc3Cl)O2)CC(C)(C)N=C(S)N1 (stereo not given),14.1 µM (active)

# Molecular target: T3, Replicative DNA helicase DnaB (Mycobacterium tuberculosis, UniProt P9WMR3)
# T3 sequence (P9WMR3 whole entry): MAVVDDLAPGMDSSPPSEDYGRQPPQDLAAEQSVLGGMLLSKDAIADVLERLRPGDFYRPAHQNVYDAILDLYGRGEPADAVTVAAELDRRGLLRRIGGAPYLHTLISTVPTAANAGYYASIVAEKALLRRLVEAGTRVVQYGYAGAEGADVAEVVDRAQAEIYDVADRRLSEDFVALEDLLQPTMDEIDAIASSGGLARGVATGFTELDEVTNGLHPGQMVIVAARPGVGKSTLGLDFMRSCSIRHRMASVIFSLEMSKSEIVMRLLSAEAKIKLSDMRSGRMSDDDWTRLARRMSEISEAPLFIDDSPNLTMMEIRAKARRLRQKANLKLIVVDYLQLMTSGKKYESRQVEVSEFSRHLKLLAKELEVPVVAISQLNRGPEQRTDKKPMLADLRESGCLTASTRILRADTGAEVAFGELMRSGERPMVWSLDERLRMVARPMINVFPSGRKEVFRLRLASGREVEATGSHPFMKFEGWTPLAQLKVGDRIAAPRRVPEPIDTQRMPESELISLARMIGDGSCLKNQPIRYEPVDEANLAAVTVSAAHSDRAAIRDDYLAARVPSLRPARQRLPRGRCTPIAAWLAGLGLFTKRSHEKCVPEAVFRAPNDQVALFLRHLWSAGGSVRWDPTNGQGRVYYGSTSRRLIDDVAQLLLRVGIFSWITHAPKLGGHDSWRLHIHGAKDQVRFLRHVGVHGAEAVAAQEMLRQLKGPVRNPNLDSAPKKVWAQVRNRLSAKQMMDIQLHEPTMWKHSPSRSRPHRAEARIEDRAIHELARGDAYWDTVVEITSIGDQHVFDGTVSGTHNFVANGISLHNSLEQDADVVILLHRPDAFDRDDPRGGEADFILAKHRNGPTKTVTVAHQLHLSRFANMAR
# Experiment: DnaB intein splicing inhibitors, dose response, biochemical, cell-free fluorescence (AID 449749)
# Format: functional
# Conditions: not given
row,SMILES,AC50
1,CN(Cc1ccc(Cl)cc1)C(=O)CCl,21.8 µM (active)
2,CSC(=N/c1cc(Cl)ccc1Cl)/C(C#N)=C(/O)c1ccco1,2.51 µM (active)
3,Oc1ccc(Nc2nc(-c3ccc4ccccc4c3)cs2)cc1,67.6 µM (active)
4,C/C(CC(=O)Nc1cc(C)ccn1)=N\NC(=O)c1cccc(F)c1,18.7 µM (active)
5,COc1ccc(N/N=C(\C#N)C(=N)SCc2ccccc2)cc1,3.6 µM (active)
6,CCCc1n[nH]c2c1C(c1ccc(O)cc1OCC)C(C#N)=C(N)O2 (stereo not given),40.3 µM (active)
7,COC(=O)c1c(C)oc2ccc(N(C(=O)c3ccncc3)S(=O)(=O)c3ccc(C)cc3C)cc12,2.27 µM (active)
8,CC(=O)N1CC2(c3ccccc3)CN(C(C)=O)CC(c3ccccc3)(C1)C2=O,> 380 µM (inactive)
9,CC(=O)Oc1cc2c(cc1Cl)C1(CC(c3ccccc3Cl)O2)CC(C)(C)N=C(S)N1 (stereo not given),4.22 µM (active)

# Molecular target: T4, Calpain-2 catalytic subunit (Sus scrofa, UniProt P43367)
# T4 sequence (P43367 whole entry): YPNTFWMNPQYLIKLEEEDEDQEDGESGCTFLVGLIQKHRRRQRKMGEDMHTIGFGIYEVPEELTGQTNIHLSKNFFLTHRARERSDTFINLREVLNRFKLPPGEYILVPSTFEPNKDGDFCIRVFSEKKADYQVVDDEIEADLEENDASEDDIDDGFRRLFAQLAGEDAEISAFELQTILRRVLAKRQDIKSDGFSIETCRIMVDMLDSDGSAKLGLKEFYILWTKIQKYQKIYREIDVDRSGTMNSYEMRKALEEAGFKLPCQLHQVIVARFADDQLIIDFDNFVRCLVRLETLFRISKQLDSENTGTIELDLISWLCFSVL
# Experiment: m-calpain protease blockers, concentration series – biochemical, fluorogenic peptide substrate, dose response (AID 1420)
# Format: functional
# Conditions: not given
row,SMILES,IC50
1,S=C(Nc1ccccc1Oc1ccccc1)Nc1cccc(Cl)c1Cl,12.7 µM (not active)
2,O=c1ccc2ccc(Oc3ccc(Cl)cc3[N+](=O)[O-])cc2o1,< 0.4 µM (not active)
3,Cc1cccc(NC(=O)c2cc3c(=O)n4ccccc4nc3n(CC(C)C)c2=N)c1,> 50 µM (not active)
4,CC(=C/C(=O)O)/C(=C/c1ccccc1)C(=O)O,< 0.4 µM (not active)
5,O=C(NCCc1ccccn1)c1ccc(OC(F)F)cc1,< 0.4 µM (not active)
6,S=C(c1ccc(N2CCCC2)cc1)N1CCCCC1,12.1 µM (active)
7,CCOC(=O)Cn1c(=O)cc(C)c2cccc(C)c21,< 0.4 µM (not active)
8,Cc1cccc(NC(=O)CSc2nnc(CNC(=O)c3cccs3)o2)c1C,7.44 µM (not active)
9,Cc1ccc(NS(=O)(=O)c2cc(C(=O)NCCSC3CCCCC3)ccc2C)cc1,> 50 µM (not active)
10,C#CCSc1nnc(-c2sc3ccccc3c2Cl)o1,> 50 µM (not active)

# Test system: not listed separately
# Experiment: microbe, parasite or virus in culture
# Format: functional
# Conditions: Mycobacterium tuberculosis
row,SMILES,CC50
1,CSC(=N/c1cc(Cl)ccc1Cl)/C(C#N)=C(/O)c1ccco1,37.1 µM (active)
2,Oc1ccc(Nc2nc(-c3ccc4ccccc4c3)cs2)cc1,17.1 µM (active)

# Test system: not listed separately
# Experiment: Luminescence Cell-Based Dose Retest to Confirm Inhibitors of Cancer Stem Cells. [Related pubchem assays (depositor defined):AID2717, AID2721]
# Format: functional
# Conditions: Homo sapiens
row,SMILES,AC50
1,Oc1ccc(Nc2nc(-c3ccc4ccccc4c3)cs2)cc1,5.31 µM (active)

# Molecular target: T5, Heat shock factor protein 1 (Mus musculus, UniProt P38532)
# T5 sequence (P38532 whole entry): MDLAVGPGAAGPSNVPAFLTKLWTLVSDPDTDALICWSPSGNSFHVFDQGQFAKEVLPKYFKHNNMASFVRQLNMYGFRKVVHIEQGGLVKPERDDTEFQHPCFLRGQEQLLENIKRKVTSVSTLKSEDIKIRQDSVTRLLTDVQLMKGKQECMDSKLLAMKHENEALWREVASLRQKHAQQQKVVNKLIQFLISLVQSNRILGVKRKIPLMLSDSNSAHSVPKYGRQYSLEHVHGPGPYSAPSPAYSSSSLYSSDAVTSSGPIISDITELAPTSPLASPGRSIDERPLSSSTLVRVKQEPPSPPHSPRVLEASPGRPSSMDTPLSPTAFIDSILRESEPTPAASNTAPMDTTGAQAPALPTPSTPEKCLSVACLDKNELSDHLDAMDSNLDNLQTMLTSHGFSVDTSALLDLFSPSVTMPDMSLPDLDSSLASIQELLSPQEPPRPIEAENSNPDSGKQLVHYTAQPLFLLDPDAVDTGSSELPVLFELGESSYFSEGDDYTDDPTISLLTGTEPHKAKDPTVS
# Experiment: enhancement of HSF1-driven luciferase signal – cell-based, NIH3T3, luminescence, dose retest, confirmation (AID 435004);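 note: stress induced by proteasome inhibitor MG132 added 30 min after compound; luciferase reporter driven by HSF1 response element in NIH3T3 cells; actives raise luminescence as potentiators of the MG132 stress response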
# Format: functional
# Conditions: not given
row,SMILES,EC50
1,CSC(=N/c1cc(Cl)ccc1Cl)/C(C#N)=C(/O)c1ccco1,11.2 µM (active)

# Test system: INS1
# Experiment: INS-1E survival protection against cytokine death – cell-based, luminescence, retest, dose response (AID 449756);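 note: cell death triggered by IL-1 beta plus TNF-alpha plus IFN-gamma mixture; protective hits raise ATP signal compared with cytokine alone wells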
# Format: functional
# Conditions: Rattus norvegicus
row,SMILES,AC50
1,Oc1ccc(Nc2nc(-c3ccc4ccccc4c3)cs2)cc1,16.6 µM (active)
2,COC(=O)c1c(C)oc2ccc(N(C(=O)c3ccncc3)S(=O)(=O)c3ccc(C)cc3C)cc12,3.85 µM (active)

# Test system: not listed separately
# Experiment: cells
# Format: functional
# Conditions: not given
row,SMILES,IC50
1,CSC(=N/c1cc(Cl)ccc1Cl)/C(C#N)=C(/O)c1ccco1,7.46 µM (active)

# Molecular target: T5, Heat shock factor protein 1
# Experiment: decrease of HSF1-responsive luciferase luminescence – cell-based, NIH3T3, dose retest, confirmation (AID 2382);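 note: NIH3T3 fibroblasts with HSF1-driven luciferase reporter stressed by proteasome inhibitor MG132; luminescence from HSF1-driven luciferase expression after 8 hours of MG132 stress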
# Format: functional
# Conditions: not given
row,SMILES,EC50
1,COc1ccc(-c2noc(N3CCC(C(=O)NCCCN4CC(C)CC(C)C4)CC3)n2)cc1 (stereo not given),> 195 µM (not active)
2,CCOC(=O)c1c(C)[nH]c(C2=NN=C(Nc3cccc(Cl)c3)SC2)c1C,25.3 µM (active)
3,Cc1[nH]n(-c2ccccc2)c(=O)c1N=Nc1ccc2c(c1)OCO2,> 195 µM (not active)
4,CC(C)CC(=O)NC(NC(=O)CC(C)C)c1cccc([N+](=O)[O-])c1,> 195 µM (not active)
5,COC(=O)Nc1sccc1C(=O)Nc1sccc1C(=O)OC,> 195 µM (not active)
6,CC1(C)C=C(c2ccc(C=O)s2)CC(C)(C)N1C=O,> 195 µM (not active)
7,CC(C)(C)OC(=O)C1C(=O)CC(C)(O)C(C(=O)OC(C)(C)C)C1c1cccnc1 (stereo not given),> 195 µM (not active)
8,CCOc1ccc(NC(=O)CN(C)C(=O)c2ccc(N3CCCC3)c([N+](=O)[O-])c2)cc1OCC,> 195 µM (not active)
9,Cc1ccc2c(N)c(C(=O)N(c3ccccc3)c3ccccc3)sc2n1,> 195 µM (not active)
10,Fc1ccc(Cc2nnc(-c3cccs3)o2)cc1,> 195 µM (not active)
11,CC(O)c1nc2ccccc2n1Cc1nnc(-c2ccc(Cl)cc2)o1 (stereo not given),> 195 µM (not active)
